According to US20200392223A1, “IL-17A ACTIVITY INHIBITOR AND USE THEREOF” (TOKAI UNIVERSITY EDUCATIONAL SYSTEM, priority 2018, published 2020):

Assays:
[1] = test system: rat nucleus pulposus (NP) cell; experiment: mRNA expression (real time RT-PCR) in rat NP cells treated with IL-17A under 1% oxygen; format: cell-based; settings: 24 hours
Method: Nucleus pulposus cells were separated from a Sprague Dawley rat aged 11 weeks according to a method in Risbud et al (Journal of cellular biochemistry 98, 152-159, 2006; doi:10.1002/jcb.20765). In short, lumbar and coccygeal intervertebral discs of a deeply anesthetized rat were dissected under an aseptic condition, gel-like nucleus pulposus was separated from intervertebral disc annulus fibrosus (AF), the nucleus pulposus was minced and pipetted, and then the nucleus pulposus was cultured in a Dulbecco's Modified Eagle Medium (DMEM) in which 20% FBS and antibiotics were added at 20% O2, 5% CO2, and 37° C. for about 1 to 2 weeks, and then was cultured in DMEM in which 10% FBS and antibiotics were added for about 1 to 2 weeks.
The cultured rat nucleus pulposus cells were treated with 20 or 50 ng/mL of recombinant mouse IL-17A (Pepro Tech Inc., USA, #210-17) for 24 hours, expression levels of mRNAs of IL-6, COX-2, mPGES1, MMP-3, and MMP-13 were determined by real time RT-PCR according to the following procedure. Total RNA was extracted from the nucleus pulposus cells using an RNAeasy mini-column (Qiagen, Germany). Before elution from the column, RNA was treated with RNase-Free DNase I (Qiagen, Germany). The purified DNA-free RNA was transformed into cDNA using a High Capacity cDNA Reverse Transcription Kit (Applied Biosystems, USA). Template cDNA and a primer specific to each gene were added to Power SYBR Green master mix (Applied Biosystems) and an expression level of mRNA of each gene was determined using Step One Plus Real-time PCR System (Applied Biosystems). The expression level was normalized to β actin. It was verified by melting curve analysis that RT-PCR was specific and a primer dimer was not formed. […]
In (B) and (C), among the compounds of the present invention, only the compound (3) which is considered from the results of (A) described below to have the highest effect on IL-6 and COX-2 was used.
A p38 phosphorylation inhibitor “SB203580” with a concentration of 10 μM, a JNK phosphorylation inhibitor “SP600125” with a concentration of 10 μM, or an ERK phosphorylation inhibitor “PD98059” with a concentration of 10 μM was administered to rat NP cells together with recombinant mouse IL-17A with a concentration of 50 ng/ml, or alternatively, these inhibitors were not administered, and the cells were cultured under a 1% oxygen condition for 24 hours, and an expression level of mRNA of each of COX-2 and IL-6 was determined by real time RT-PCR according to the same procedure as that of [Reference Example 2]. […]

[2] = test system: p38; experiment: Phosphorylation of MAPK factors (western blotting) in rat NP cells treated with IL-17A; format: cell-based; settings: 50 μg/ml + IL-17A 50 ng/ml, 1% oxygen
Method: In rat nucleus pulposus cells subjected to treatment for 24 hours in 50 ng/mL of IL-17A in which the most remarkable increases of IL-6 and COX-2 were observed, an expression level of a protein of each of IL-6 and COX-2, and β actin used as a control was determined by western blotting according to the following procedure. The nucleus pulposus cells were placed on ice and then washed with ice-cold PBS. In order to prepare total cell proteins, the cells were lysed with a lysis buffer containing 10 mM Tris-HCl (pH 7.6), 50 mM NaCl, 5 mM EDTA, 1% Nonidet P-40, a complete protease inhibitor cocktail (Roche AG, USA), 1 mM NaF, and 1 mM Na3VO4. The proteins were fractionated by SDS-PAGE and transferred onto Immobilon-P polyvinylidene difluoride membrane (Millipore Corporation, USA). […] Western blotting data were quantified by densitometric scanning of a film using Macintosh computer software “CS Analyzer” (ATTO Corporation, Japan). […]
It is reported that IL-17A is likely to be involved in the expression of COX-2 through a MAPK pathway. Involvement of IL-17A in MAPK factors (p38, JNK, and ERK) with respect to the expression of each of COX-2 and IL-6, and influence of the compound (1) of the present invention on these MAPK factors were evaluated by the following method. […]

[3] = test system: mouse psoriasis skin model; experiment: Mouse psoriasis skin model (imiquimod cream); format: in vivo
Method: About 1×1.5 cm of back of 10-week-old male BJ6J mouse was shaved, and imiquimod (IMQ, a drug causing psoriasis-like dermatitis in a mouse) cream was applied every day from day 1 to day 4. From the 5th day (day 5) after the first IMQ cream application, 6 to 8 hours after the application of the IMQ cream, a DMSO solution containing 1 mg of the compound (3) (database registration name: STK630921) was applied (STK group=compound (3) treated group). The same IMQ cream and the solution of the compound (3) were applied every day from the 6th day (day 6) to the 9th day (day 9). […]
On the 10th day (day 10), skin of the mice in each of the STK group, the Sham group, the IMQ group, and the normal group was collected, and one sample obtained by hematoxylin eosin (HE) staining and one sample obtained by immunofluorescence staining using an anti-CXCL1 antibody were prepared per mouse. In the HE stained samples, for each sample, a thickness of an epidermis layer was measured at two or more locations with the same magnification field of view, and an average value was statistically analyzed (significant difference: p<0.05, n=3).

[4] = test system: rat intervertebral disc degeneration model; experiment: Rat intervertebral disc degeneration model; format: in vivo; settings: 1 mg in 10 μL DMSO injected into degenerated disc on day 14, evaluated day 28
Method: A 23G needle was inserted into a caudal intervertebral disc of a 11-weeks-old male SD rat (weight: 300 to 350 g) by about 5 mm, rotated at 360°, and left for 30 seconds to cause intervertebral disc degeneration (day 0). 14 days (day 14) after being subjected to the intervertebral disc degeneration, 10 μL of a DMSO solution containing 1 mg of the compound (3) (database registration number: STK630921) was injected to the degenerated intervertebral disc (STK group=compound (3) treated group). […]
28 days (day 28) after being subjected to the intervertebral disc degeneration, the caudal vertebrae of the rats in the STK group, the Sham group, the degeneration group, and the normal group were collected, fixed in 4% PFA, and decalcified, thereby preparing sample sections. […] In each sample subjected to the immunostaining, the number of IL-6 positive cells in spots of the same area arbitrarily set at 3 or 4 locations in the intervertebral disc tissue was counted with the same magnification field of view, and an expression rate of the IL-6 positive cells with respect to a total number of cells in the same spot was calculated.

[5] = compound 50 μg/ml + IL-17A 50 ng/ml, vs IL-17A only
[6] = inhibitor 10 μM + IL-17A 50 ng/ml

## C[C@H](NC(=O)Cc1nnc(O)c2ccccc12)C(=O)NCC1CCC(C(=O)O)CC1 (some centres unmarked) [(1)]
[1]; [5]
  expression level of mRNA of COX-2: excellent in the action
[2]; 15 minutes
  phosphorylation of p38: reduced
[2]; 30 minutes, vs IL-17A single administration group
  phosphorylation of p38: significant reduction

## CC(NC(=O)Cc1nnc(O)c2ccccc12)C(=O)NCC1CCC(C(=O)O)CC1 (centres unmarked) [(3)]
[1]; [5]
  expression level of mRNA of COX-2: remarkably reduced
  expression level of mRNA of IL-6: remarkably reduced
  expression level of mRNA of MMP-3: significantly reduced
  expression level of mRNA of MMP-13: significantly reduced
  expression level of mRNA of mPGES1: significantly reduced
[3]; DMSO solution containing 1 mg applied day 5 to day 9, skin collected day 10, HE staining
  thickness of the epidermis layer: significantly reduced
[3]; DMSO solution containing 1 mg applied day 5 to day 9, skin collected day 10, immunofluorescence area
  expression of CXCL1: significantly reduced
[4]
  expression rate of the IL-6 positive cells: significantly reduced

## COc1ccc(C[C@@]2(C)NC(=O)N(CC(=O)Nc3ccc(N4CCCC4=O)cc3)C2=O)cc1OC [(5)]
[1]; [5]
  expression level of mRNA of COX-2: significantly reduced
  expression level of mRNA of IL-6: significantly reduced
  expression level of mRNA of MMP-3: significantly reduced
  expression level of mRNA of MMP-13: significantly reduced
  expression level of mRNA of mPGES1: significantly reduced

## CC(C)NC(=O)CCCCn1c(=O)c2ccccc2n(CC(=O)Nc2ccc3c(c2)OCO3)c1=O [(9)]
[1]; [5]
  expression level of mRNA of IL-6: significantly reduced

## C=C(C)COc1ccc2c(C)c(CC(=O)N(C)C[C@H](O)[C@H](O)[C@H](O)[C@H](O)CO)c(=O)oc2c1C [(11)]
[1]; [5]
  expression level of mRNA of COX-2: significantly reduced
  expression level of mRNA of IL-6: significantly reduced
  expression level of mRNA of MMP-3: significantly reduced
  expression level of mRNA of MMP-13: significantly reduced
  expression level of mRNA of mPGES1: significantly reduced

## COc1cccc(-c2cc(=O)c3ccccc3o2)c1N [PD, PD98059, reference compound]
[1]; [6]
  expression level of mRNA of COX-2: significantly suppressed
  expression level of mRNA of IL-6: significantly suppressed

## C[S+]([O-])c1ccc(-c2nc(-c3ccncc3)c(-c3ccc(F)cc3)[nH]2)cc1 (centres unmarked) [SB, SB203580, reference compound]
[1]; [6]
  expression level of mRNA of COX-2: significantly suppressed
  expression level of mRNA of IL-6: significantly suppressed
